Experimental data: paper PMC3577944 (Nature chemical biology, 2013)
Changes are numbered by the printed parent chain. Entries after “also recorded” stand apart in the source; their conditions may differ. No end group written: not given here.

Key:
D381A 3MBT = target: T1, D381A 3MBT (Homo sapiens, UniProt Q96JM7, D381A); test: ITC, domain 2 mutant; conditions: domain 2 binding pocket mutant
T1 sequence (Q96JM7 225-555 D381A): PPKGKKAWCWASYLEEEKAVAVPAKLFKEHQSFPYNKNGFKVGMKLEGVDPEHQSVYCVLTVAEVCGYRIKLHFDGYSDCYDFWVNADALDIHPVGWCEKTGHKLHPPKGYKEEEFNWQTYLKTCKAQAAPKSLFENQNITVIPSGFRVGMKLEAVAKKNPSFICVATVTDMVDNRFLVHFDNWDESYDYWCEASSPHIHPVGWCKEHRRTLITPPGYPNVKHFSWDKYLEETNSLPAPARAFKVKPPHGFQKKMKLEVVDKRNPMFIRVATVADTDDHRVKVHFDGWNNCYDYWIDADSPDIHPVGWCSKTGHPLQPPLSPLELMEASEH

D274A 3MBT = target: T2, D274A 3MBT (Homo sapiens, UniProt Q96JM7, D274A); test: ITC, domain 1 mutant; type: binding
T2 sequence (Q96JM7 225-555 D274A): T1 sequence (Q96JM7 225-555 D381A) with D50A, A157D

H277A 3MBT = target: T3, H277A 3MBT (Homo sapiens, UniProt Q96JM7, H277A); test: ITC, H277A mutant; type: binding; conditions: relative to wild-type
T3 sequence (Q96JM7 225-555 H277A): T1 sequence (Q96JM7 225-555 D381A) with H53A, A157D

[1] = system: G9a, EHMT1, SUV39H2, PRMT3, SETD7, SETD8, DNMT1, MLL, PRC2, PRMT5; test: Histone methyltransferase selectivity, radioactive SAM methyl transfer; type: biochemical
[2] = system: Bromodomains (12 targets); test: Bromodomain selectivity, differential scanning fluorimetry; type: binding; conditions: at 10 µM versus 12 targets
[3] = system: Histone demethylases (15 targets); test: Lysine demethylase selectivity, differential scanning fluorimetry; type: binding
hM1 = target: T4, hM1 (Homo sapiens, UniProt P11229); test: M1 Ca2+ mobilization functional assay; type: cell-based
T4 sequence (P11229 1-460): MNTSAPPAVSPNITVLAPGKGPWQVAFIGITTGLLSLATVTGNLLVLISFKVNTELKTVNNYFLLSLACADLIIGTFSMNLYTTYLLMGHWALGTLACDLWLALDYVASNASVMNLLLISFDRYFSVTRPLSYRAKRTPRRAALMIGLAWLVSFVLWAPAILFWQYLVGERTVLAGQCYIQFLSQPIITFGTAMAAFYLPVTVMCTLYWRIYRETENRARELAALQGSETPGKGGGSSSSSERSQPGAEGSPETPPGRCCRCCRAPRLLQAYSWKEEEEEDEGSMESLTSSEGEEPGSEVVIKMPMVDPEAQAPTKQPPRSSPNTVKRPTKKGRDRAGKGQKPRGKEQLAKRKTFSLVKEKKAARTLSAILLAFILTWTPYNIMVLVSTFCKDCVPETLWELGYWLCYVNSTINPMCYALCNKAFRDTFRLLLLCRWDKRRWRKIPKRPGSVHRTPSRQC

hM2 = target: T5, hM2 (Homo sapiens, UniProt P08172); test: M2 cAMP biosensor functional assay; type: cell-based
T5 sequence (P08172 1-466): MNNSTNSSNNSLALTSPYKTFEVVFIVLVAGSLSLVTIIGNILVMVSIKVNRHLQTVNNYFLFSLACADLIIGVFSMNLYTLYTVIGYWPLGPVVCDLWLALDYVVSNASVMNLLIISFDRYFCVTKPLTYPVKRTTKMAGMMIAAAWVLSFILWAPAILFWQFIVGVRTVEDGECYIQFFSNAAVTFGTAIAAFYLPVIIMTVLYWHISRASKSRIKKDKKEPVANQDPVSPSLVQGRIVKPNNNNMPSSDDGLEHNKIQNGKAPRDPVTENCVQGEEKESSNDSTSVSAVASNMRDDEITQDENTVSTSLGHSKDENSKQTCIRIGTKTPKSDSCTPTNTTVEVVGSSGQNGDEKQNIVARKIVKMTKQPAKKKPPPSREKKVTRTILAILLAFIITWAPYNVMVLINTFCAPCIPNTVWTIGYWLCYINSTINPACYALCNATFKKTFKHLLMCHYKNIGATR

HEK293T/17 cells = test: CellTiter-Glo luminescent cell viability assay; type: cell-based, human; conditions: up to 100 µM, 24 hours
[4] = target: T6, GFP-3MBT (L3MBTL3 MBT domains) in HEK293 cells (Homo sapiens, UniProt Q96JM7); test: FRAP of GFP-3MBT; type: cell-based
T6 sequence (Q96JM7 200-530 isoform Q96JM7-2 limits assumed): T1 sequence (Q96JM7 225-555 D381A) with A157D

[5] = target: T7, GFP-FLMBT (full length L3MBTL3) (Homo sapiens, UniProt Q96JM7); test: FRAP of GFP-FLMBT; type: cell-based; conditions: lesser extent than GFP-3MBT
T7 sequence (Q96JM7 1-755 isoform Q96JM7-2): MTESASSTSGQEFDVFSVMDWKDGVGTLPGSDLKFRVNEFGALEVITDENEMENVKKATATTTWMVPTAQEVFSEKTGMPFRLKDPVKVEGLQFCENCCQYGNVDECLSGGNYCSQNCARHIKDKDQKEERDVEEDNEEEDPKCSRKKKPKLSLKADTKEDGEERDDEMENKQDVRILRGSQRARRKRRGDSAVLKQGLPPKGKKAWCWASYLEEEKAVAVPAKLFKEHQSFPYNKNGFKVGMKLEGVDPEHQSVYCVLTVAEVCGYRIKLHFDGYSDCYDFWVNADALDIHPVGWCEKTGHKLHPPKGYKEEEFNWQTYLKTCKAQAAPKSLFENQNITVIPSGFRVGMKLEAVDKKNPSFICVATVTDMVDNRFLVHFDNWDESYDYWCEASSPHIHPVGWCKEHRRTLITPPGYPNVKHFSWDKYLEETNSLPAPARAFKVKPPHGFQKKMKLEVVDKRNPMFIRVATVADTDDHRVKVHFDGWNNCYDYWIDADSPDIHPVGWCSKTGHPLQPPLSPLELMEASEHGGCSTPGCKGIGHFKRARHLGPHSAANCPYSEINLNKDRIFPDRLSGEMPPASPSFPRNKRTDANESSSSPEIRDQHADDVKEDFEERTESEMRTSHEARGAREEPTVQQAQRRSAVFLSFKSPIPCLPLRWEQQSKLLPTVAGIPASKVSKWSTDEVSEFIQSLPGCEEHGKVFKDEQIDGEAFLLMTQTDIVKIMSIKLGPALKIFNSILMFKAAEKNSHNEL

[6] = target: T8, GFP-FLMBT foci in 293 or U2OS cells (Homo sapiens, UniProt Q96JM7); test: GFP-FLMBT nuclear foci formation; type: cell-based; conditions: N-terminally tagged full length L3MBTL3
T8 sequence (Q96JM7 1-755 isoform Q96JM7-2): T7 sequence (Q96JM7 1-755 isoform Q96JM7-2)

[7] = target: T9, flag-3MBT / BCLAF1 interaction (Homo sapiens, UniProt Q96JM7); test: Co-immunoprecipitation of BCLAF1 with flag-3MBT; type: cell-based; conditions: 1 μM, 18 hours, HEK293 cells
T9 sequence (Q96JM7 225-555 limits assumed): T1 sequence (Q96JM7 225-555 D381A) with A157D

[8] = target: T10, flag-FLMBT / BCLAF1 interaction (Homo sapiens, UniProt Q96JM7); test: Co-immunoprecipitation of BCLAF1 with flag-FLMBT; type: cell-based; conditions: 1 μM, 18 hours, HEK293 cells
T10 sequence (Q96JM7 1-755 isoform Q96JM7-2): T7 sequence (Q96JM7 1-755 isoform Q96JM7-2)

L3MBTL3 (3MBT) [9] = target: T11, L3MBTL3 (3MBT) (Homo sapiens, UniProt Q96JM7); test: H4K20me2 peptide pull-down competition; conditions: increasing concentrations
T11 sequence (Q96JM7 168-555 limits assumed): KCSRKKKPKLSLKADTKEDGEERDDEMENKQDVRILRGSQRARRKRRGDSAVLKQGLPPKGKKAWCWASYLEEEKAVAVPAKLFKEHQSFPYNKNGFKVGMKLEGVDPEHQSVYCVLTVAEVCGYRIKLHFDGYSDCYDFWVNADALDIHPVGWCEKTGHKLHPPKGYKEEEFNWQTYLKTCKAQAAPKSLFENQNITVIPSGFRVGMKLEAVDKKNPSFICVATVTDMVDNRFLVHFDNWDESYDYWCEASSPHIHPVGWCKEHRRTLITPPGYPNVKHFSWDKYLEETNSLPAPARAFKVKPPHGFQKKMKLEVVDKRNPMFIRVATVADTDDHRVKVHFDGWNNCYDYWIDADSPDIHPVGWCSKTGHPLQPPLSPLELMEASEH

53BP1 = 53BP1 (Homo sapiens, UniProt Q12888); test: H4K20me2 peptide pull-down competition; conditions: increasing concentrations
Sequence of 53BP1 (Q12888 1459-1634): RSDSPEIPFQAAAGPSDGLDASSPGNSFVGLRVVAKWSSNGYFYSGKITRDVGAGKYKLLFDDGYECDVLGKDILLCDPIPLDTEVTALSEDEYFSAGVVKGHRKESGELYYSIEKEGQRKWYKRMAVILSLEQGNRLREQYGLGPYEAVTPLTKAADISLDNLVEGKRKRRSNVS

L3MBTL3 (3MBT) [10] = target: T12, L3MBTL3 (3MBT) (Homo sapiens, UniProt Q96JM7); type: binding; conditions: similar affinity to H4K20me histone peptides
T12 sequence (Q96JM7 225-555): T1 sequence (Q96JM7 225-555 D381A) with A157D

binding diminished relative to wildtype, D274A 3MBT (D274A 3MBT) | binding to H277A 3MBT by ITC, in words (H277A 3MBT) | activity against panel of histone methyltransferases, in words [1] | Tm shift, lysine demethylases [3] [°C] | agonist activity, M1 (hM1) | agonist activity, M2 (hM2) | EC50 [4] [nM] | mobility of GFP-FLMBT by FRAP, in words [5] | antagonism of L3MBTL3 (3MBT) H4K20me2 pull-down, in words (L3MBTL3 (3MBT) [9]) | displacement of H4K20me2 from L3MBTL3 by AlphaScreen, in words (L3MBTL3 (3MBT) [10]) | Molecule | binding to D381A 3MBT by ITC, in words (D381A 3MBT) | Tm shift, bromodomains [2] [°C] | cytotoxicity (CellTiter-Glo cell viability) (HEK293T/17 cells) | effect on GFP-FLMBT foci formation, in words [6] | interaction between flag-3MBT and BCLAF1, in words [7] | interaction between flag-FLMBT and BCLAF1, in words [8] | antagonism of 53BP1 H4K20me2 pull-down, in words (53BP1)
about 30 fold | marked loss of affinity | inactive | < 0.5 | no agonist activity | no agonist activity | 50 to 100 | found to increase | nanomolar potency |  | O=C(c1ccc(C(=O)N2CCC(N3CCCC3)CC2)c(Nc2ccccc2)c1)N1CCC(N2CCCC2)CC1 [UNC1215] | completely abolished; also recorded: completely abrogates binding | < 0.5 | no observable level of cytotoxicity | relatively ineffective at inhibiting foci formation; also recorded: could no longer be disrupted | substantially reduced; also recorded: disrupts the interaction | reduced to a lesser extent; also recorded: reduces the interaction | much weaker affinity; also recorded: micromolar antagonism
 |  |  |  |  |  |  |  |  | effectively displaces H4K20me2 | BCLAF1 Kme peptide: K445me containing BCLAF1 peptide (residues 438-452) (YKSKVSLK(Me)GNRESDG) |  |  |  |  |  |  | 
